Source: publication PMC7067850, “Identification of highly potent and selective inhibitor, TIPTP, of the p22phox-Rubicon axis as a therapeutic agent for rheumatoid arthritis” (Scientific Reports, 2020)

Assays:
[1] = Plasma stability assay; format: in vitro ADME; details: 37 °C
Experimental: Human plasma in each culture tube, treated with test compound (10 μM), was incubated at 37 °C for 0, 30 and 120 min. At the determined period of time, internal standard solution of chlopropamide in acetonitrile was added into each culture tube and then tubes were vortexed for 5 min, and then centrifuged for 5 min (14,000 rpm, 4 °C). The supernatant was then injected into LC-MS/MS system to analyze the plasma stability of the tested compound.

[2] = system: BMDMs; assay: MTT assay for cell viability; format: cell-based, mouse; details: different concentrations and times (Fig. 3b)
Experimental: The mouse macrophage cell line RAW264.7 (ATCC TIB-71; American Type Culture Collection) and HEK293T (ATCC-11268) cells were maintained in DMEM (Invitrogen) containing 10% FBS (Invitrogen), sodium pyruvate, nonessential amino acids, penicillin G (100 IU/ml), and streptomycin (100 μg/ml). Transient transfections were performed with Lipofectamine 3000 (Invitrogen), or calcium phosphate (Clontech), according to the manufacturer’s instructions. Raw264.7 stable cell lines were generated using a standard selection protocol with 2 μg/ml of puromycin. Mouse primary bone marrow derived-macrophages (BMDMs) were isolated from C57BL/6 mice and cultured in DMEM for 3–5 days in the presence of 25 ng/ml recombinant macrophage colony stimulating factor (R&D Systems, 416-ML, Minneapolis, MN, USA), as described previously. Human adherent monocytes were prepared from PBMCs donated by healthy subjects, as described previously.
Figure 3 TIPTP robustly suppresses LPS/ATP-mediated Rubicon-p22phox interaction and ROS-mediated inflammation. (a) Structure of the TIPTP. (b) MTT assay for cell viability. BMDMs were incubated with TIPTP for the indicated times at the indicated TIPTP concentrations (upper). WCLs were used for IB with α22phox, αRubicon, or αActin (lower). […] Quantitative analysis of mean fluorescence intensities of ROS (lower). […] (f) Culture supernatants were harvested and analyzed for cytokines by ELISA. […]

[3] = system: synoviocytes from RA patients; assay: Synoviocytes from RA patients ex vivo (co-IP, confocal, ELISA, immunoblot); format: cell-based, human
Text: Synovial tissue specimens were obtained from all female patients with RA (n = 16, 60.5 years ± 6.0) or OA (n = 10, 59.5 years ± 7.2) during open synovectomy or joint replacement surgery at Hanyang University Hospital. All patients gave informed consent, and the procedure was approved by the Ethics Committee of Hanyang University Hospital approved this study (2017-05-003). This study was approved by the bioethics committee of The Red Cross (Seoul, South Korea), which oversees studies using samples from human subjects, and all methods were performed in accordance with the relevant guidelines and regulations.
Immunoblot and immunoprecipitation assays were performed as described previously[18],[23]. For immunoprecipitation, cells were harvested and then lysed in NP-40 buffer supplemented with a complete protease inhibitor cocktail (Roche). After pre-clearing with protein A/G agarose beads (GE Healthcare Life Science) for 1 h at 4 °C, whole-cell lysates were used for immunoprecipitation with the indicated antibodies. Generally, 1–4 μg of commercial antibody was added to 1 ml of cell lysates and incubated at 4 °C for 8 to 12 h. After the addition of protein A/G agarose beads for 6 h, immunoprecipitants were extensively washed with lysis buffer and eluted with SDS loading buffer by boiling for 5 min.
Cell culture supernatants, mice sera and synovial fluid were analyzed for cytokine content using the BD OptEIA ELISA set (BD Pharmingen) for the detection of TNF-α, IL-6, IL-1β, and IL-18. All assays were performed as recommended by the manufacturer.
Figure 6 TIPTP is active for cells from healthy humans or patients with RA. (a and b) LPS-primed human monocytes were treated with TIPTP (0.01, 0.1, 1 μM) for 30 min, and then activated with ATP for the 30 min. (a) IP with αp22phox or αRubicon, followed by IB with αRubicon or αp22phox. Loading control was used for IB with αActin. (b) Culture supernatants were harvested and analyzed for cytokines by ELISA (left). […] (e) Culture supernatants were harvested and analyzed for cytokines by ELISA (left). […]

For `C[C@@H](Oc1cccc(-n2cc3c(n2)CCCC3)c1)C(=O)Nc1nnc(C(F)(F)F)s1` [TIPTP, (R)-2-(3-(4,5,6,7-tetrahydro-2H-indazol-2-yl)phenoxy)-N-(5-(trifluoromethyl)-1,3,4-thiadiazol-2-yl)propanamide], which “Human plasma stability (% remaining after 30 min)” value ([1]; 10 μM, 30 min, listed as TIPTP (2)) is on record?
Its value is 97.4%.

And the “Human plasma stability (% remaining after 2 h)” value ([1]; 10 μM, 2 h, listed as TIPTP (2))?
Its value is 93.8%.

And the remaining at 0.5 h, 10 μM ([1]; human, plasma, 30 min, read-out: Human plasma stability (% remaining after 30 min))?
The remaining at 0.5 h, 10 μM was 97%.

What about the remaining at 2 h, 10 μM ([1]; human, plasma, 2 h, read-out: Human plasma stability (% remaining after 2 h)) of the same compound?
The remaining at 2 h, 10 μM was 94%.

What about the “cell viability of BMDMs” value [2] of the same compound?
Its value is “did not induce any significant change”.

And the “p22phox–Rubicon interaction” value ([3]; RA patient cells, WB and confocal (Fig. 6c,d))?
Its value is “efficiently inhibit”.

What about the “p22phox-NOX2, NOX4, or NOX5 interaction” value ([3]; RA patient synoviocytes (Supplemental Fig. 7)) of the same compound?
The value was “not inhibit”.

What about the “caspase-1 activation, and IL-1β and IL-18 production” value ([3]; freshly isolated RA synoviocytes without NLRP3 agonists (Fig. 6e)) of the same compound?
Its value is “inhibited in a dose-dependent manner”.
